From PMC11375437, “Selective labelling of GBA2 in cells with fluorescent β-D-arabinofuranosyl cyclitol aziridines” (Chemical Science, 2024)

Biological target: T1, GBA1 (Homo sapiens, UniProt P04062)
T1 construct: endogenous in cells; host or cells: wild-type HEK293T
T1 sequence (P04062 40-536): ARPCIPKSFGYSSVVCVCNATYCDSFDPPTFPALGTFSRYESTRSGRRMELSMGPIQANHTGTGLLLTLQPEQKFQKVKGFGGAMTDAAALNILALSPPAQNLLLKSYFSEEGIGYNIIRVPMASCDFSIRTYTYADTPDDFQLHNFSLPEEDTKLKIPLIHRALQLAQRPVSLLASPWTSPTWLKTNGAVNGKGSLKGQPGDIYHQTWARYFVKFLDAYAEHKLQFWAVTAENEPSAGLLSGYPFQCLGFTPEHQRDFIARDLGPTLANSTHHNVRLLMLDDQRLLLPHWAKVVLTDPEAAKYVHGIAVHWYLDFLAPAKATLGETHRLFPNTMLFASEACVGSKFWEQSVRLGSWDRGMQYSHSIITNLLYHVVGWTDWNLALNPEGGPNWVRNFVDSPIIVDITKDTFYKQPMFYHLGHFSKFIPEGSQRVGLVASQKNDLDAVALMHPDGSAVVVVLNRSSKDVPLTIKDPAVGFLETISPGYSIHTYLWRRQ
Assay: In situ labelling of wild-type HEK293T cells, GBA1
Type: cell-based
Conditions: wild-type HEK293T intact cells; for GBA1 labelling in situ: 500 nM, 2.5 h
Experimental: Importantly, the GBA2 selectivity of β-D-Araf ABPs 3–5 was maintained during in situ labelling of wild-type HEK293T cells (ESI Fig. S9 ^†). […] Even after 24 h incubation, similar results were obtained: ABP 4 selectively labelled GBA2 at 10 nM, with only slight concomitant GBA1 labelling at concentrations higher than 100 nM (ESI Fig. S10 ^†). Selective GBA2 labelling by ABP 3 and 4 finally was also observed in human retinal pigment epithelial-1 cells (Fig. 5C).
Figure S9. Fluorescent gel images of in situ labelling of wild-type HEK293T cells by β-D-Araf aziridine ABPs 3-5.
β-D-Araf ABPs were firstly incubated with intact wild-type HEK293T cells for 1 or 2.5 h (1st incubation) and then cells were harvested. Lysis buffers containing different competitors (1 µM ABP or cyclophellitol inhibitor (CP, 1 µM for 150 nM set, 2 µM for 500 nM set)) was added to the harvested cells, cells were lysed, and lysate was incubated on ice for 30 min and additional 30 min at 37 °C (2nd incubation). Labelling of residual β-glucosidases was performed using ABPs 7 (for 3), 8 (for 4), or 9 (for 5) at 500 nM.
Figure S10. Fluorescent gel images of A) intact HEK293T wild-type cells labeled by β-D-Araf aziridine ABPs 3-5. […]
2.13 In situ intact cells labelling and inhibition assays
Confluent HEK293T cells expressing human endogenous GBA1 and GBA2/GBA3 OE, wild-type HEK293T cells or wild-type human retinal pigment epithelial-1 (RPE-1) cells were cultured in 12-well plates for duplicates or triplicates with (or without) compounds (3-5) for the described incubation times using the conditions as described for the cell culture. The cells were harvested as described in the cell lysis method. After determination of the protein concentration by BCA assay, the lysates were adjusted to 10 μL by addition of potassium phosphate buffer in order to normalize the amount of protein loaded (to 10-25 μg total protein per measurement), and subjected to the ABPP as […]
2.14 In situ visualization of GBA2 for confocal microscopy
HEK293T WT, GBA2 overexpression (GBA1 endogenous and GBA2 OE) and GBA1/GBA2 knockout (KO) GBA2 overexpression (GBA1/2 KO GBA2 OE) cells were cultured in DMEM High Glucose (Capricon Scientific) supplemented with 10% fetal calf serum, 1% (v/v) GlutaMax and 0.1% (w/v) penicillin/streptomycin.2,6 Cells were grown to approximately 75% confluence on Ø15 mm glass coverslips coated with 0.1 mg/ml poly-L-Lysine.
Samples were pretreated for 16 h with 100 nM of a GBA1 inhibitor (218, 0.5% DMSO), 500 nM of a GBA1 and GBA2 inhibitor (229, 0.5% DMSO) or with 0.5% DMSO alone. GBA2 was subsequently incubated by the addition of 50 nM ABP 4 (BODIPY-Red) to cells for 2 h at 37 °C with 5% CO2.
Unbound probe was washed away with PBS and cells were fixed with 4% paraformaldehyde (Alfa Aesar)/PBS for 15 min at RT. […]

SMILES	GBA1 labelling in situ	Concentrations giving slight concomitant GBA1 labelling in situ (24 h incubation)
COc1ccc(C2=[N+]3C(=C(CCCCc4cn(CCCCCCCCN5[C@@H]6[C@H](CO)[C@@H](O)[C@H](O)[C@@H]65)nn4)c4ccc(-c5ccc(OC)cc5)n4[B-]3(F)F)C=C2)cc1 (stereo partly shown) [ABP 4]	did not visibly label GBA1	higher than 100 nM
CC1=CC(C)=[N+]2C1=C(CCCCc1cn(CCCCCCCCN3[C@@H]4[C@H](CO)[C@@H](O)[C@H](O)[C@@H]43)nn1)c1c(C)cc(C)n1[B-]2(F)F (stereo partly shown) [ABP 3]	did not visibly label GBA1	
CN1/C(=C/C=C/C=C/C2=[N+](CCCCCC(=O)NCc3cn(CCCCCCCCN4[C@@H]5[C@H](CO)[C@@H](O)[C@H](O)[C@@H]54)nn3)c3ccccc3C2(C)C)C(C)(C)c2ccccc21 (stereo partly shown) [ABP 5]	GBA1 labelling only occurred when using a high concentration (500 nM) and longer incubation time (2.5 h)	
